# Counter-ions that a name gives are not always drawn.
# What was measured:
# [1] = molecular target: T1, ΔF508-CFTR (Mus musculus, UniProt P26361, DEL508-508); assay: ex vivo treatment of ileum from ΔF508-CFTR mice, Isc response to forskolin+genistein; conditions: 20 μM, 5-6 h ex vivo
# T1 construct: from tissue; host or cells: ileal mucosa of homozygous ΔF508 mice (A11 ex vivo, A12 after gavage); salivary secretion in the living mouse (A13)
# Description: (§1) Glafenine was tested ex vivo and in vivo using ileum from homozygous Δ508-CFTR mice (CFTR^tm1 Eur; van Doorninck et al., 1995) and wild-type littermates controls. Mice were 14-17 weeks old, weighed 24-30 g, and were genotyped by standard PCR methods using tail DNA. The mice were kept in a pathogen-free environment in the animal facility at McGill University and fed a high protein diet (SRM-A, Hope Farms, Woerden, NL) modified to contain pork instead of beef. All procedures followed Canadian Institutes of Health Research (CIHR) guidlines and were approved by the faculty Animal Care Committee. For ex vivo experiments, ileal mucosa was stripped of muscle and incubated in William's E-Glutamax medium supplemented with insulin (10 μg/ml), 100 U/ml penicillin, and 100 μg/ml streptomycin and dexamethasone (1.6 ng/ml) containing 0.1% DMSO (control) or DMSO containing glafenine for 5 h. The tissue was then rinsed repeatedly and mounted in Ussing chambers to measure […]. For in vivo experiments, mice were feed once per day by gavage with saline containing glafenine (50 mg/kg) or vehicle alone (0.1% DMSO). After 2 days of glafenine treatment the mice were euthanized under CO2, the intestine was dissected and the short circuit current was measured as described above.
# [2] = molecular target: ΔF508-CFTR (Homo sapiens, UniProt P13569, DEL508-508); assay: short-circuit current (Isc) across CFBE41o− monolayers in Ussing chambers; format: cell-based; set-up: expressed in transfected cells; host or cells: CFBE41o- (ΔF508/ΔF508) transduced with ΔF508-CFTR, TranzVector lentivirus, provided by J. P. Clancy; conditions: 10 μM, 24 h
# ΔF508-CFTR (Homo sapiens, UniProt P13569, DEL508-508), sequence (P13569 with tags, fused parts or gaps DEL508-508): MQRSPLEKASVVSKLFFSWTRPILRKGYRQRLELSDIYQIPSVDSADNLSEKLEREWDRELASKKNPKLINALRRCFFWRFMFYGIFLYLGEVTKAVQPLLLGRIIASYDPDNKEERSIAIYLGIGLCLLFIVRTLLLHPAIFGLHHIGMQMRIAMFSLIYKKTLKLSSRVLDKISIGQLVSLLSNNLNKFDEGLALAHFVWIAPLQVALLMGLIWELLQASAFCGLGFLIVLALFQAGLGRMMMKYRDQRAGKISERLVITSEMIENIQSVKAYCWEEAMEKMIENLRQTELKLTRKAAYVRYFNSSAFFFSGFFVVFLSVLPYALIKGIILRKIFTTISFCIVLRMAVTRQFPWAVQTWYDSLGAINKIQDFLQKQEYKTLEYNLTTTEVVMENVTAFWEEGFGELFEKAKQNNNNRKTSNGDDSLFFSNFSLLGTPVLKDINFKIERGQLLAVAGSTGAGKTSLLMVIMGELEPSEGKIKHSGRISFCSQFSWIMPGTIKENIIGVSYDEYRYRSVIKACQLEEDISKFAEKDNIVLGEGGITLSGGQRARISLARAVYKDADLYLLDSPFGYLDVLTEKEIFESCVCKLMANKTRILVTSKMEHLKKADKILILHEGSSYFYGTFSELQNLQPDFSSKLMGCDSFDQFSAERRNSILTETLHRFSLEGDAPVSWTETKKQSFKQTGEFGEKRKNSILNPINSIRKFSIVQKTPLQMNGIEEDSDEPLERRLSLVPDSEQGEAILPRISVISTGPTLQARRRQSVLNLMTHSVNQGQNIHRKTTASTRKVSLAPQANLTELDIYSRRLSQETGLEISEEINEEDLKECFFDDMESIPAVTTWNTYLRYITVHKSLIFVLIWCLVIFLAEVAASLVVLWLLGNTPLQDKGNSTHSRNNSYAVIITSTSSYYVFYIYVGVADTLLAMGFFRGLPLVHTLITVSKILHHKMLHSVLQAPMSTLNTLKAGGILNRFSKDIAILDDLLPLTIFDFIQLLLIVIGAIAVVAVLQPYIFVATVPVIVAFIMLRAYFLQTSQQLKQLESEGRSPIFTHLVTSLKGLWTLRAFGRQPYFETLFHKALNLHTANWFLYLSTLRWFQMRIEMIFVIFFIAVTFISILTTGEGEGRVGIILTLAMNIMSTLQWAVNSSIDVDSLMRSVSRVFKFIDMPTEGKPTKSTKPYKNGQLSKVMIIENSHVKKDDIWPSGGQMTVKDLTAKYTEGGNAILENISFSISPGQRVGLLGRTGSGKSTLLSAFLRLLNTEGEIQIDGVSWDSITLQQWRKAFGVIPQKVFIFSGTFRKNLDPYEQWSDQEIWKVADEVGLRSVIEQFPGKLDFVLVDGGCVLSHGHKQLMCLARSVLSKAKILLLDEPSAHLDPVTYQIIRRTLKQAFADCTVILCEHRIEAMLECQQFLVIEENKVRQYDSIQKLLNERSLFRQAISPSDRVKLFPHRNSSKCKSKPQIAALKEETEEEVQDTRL
# Description: Short-circuit current (Isc) was measured across monolayers in modified Ussing chambers. 1×10^6 CFBE41o^− cells were seeded onto 12-mm fibronectin-coated Snapwell inserts (Corning Incorporated, Life Sciences, New-York, N.Y.) and the apical medium was removed after 24 h. Transepithelial resistance was monitored using an EVOM epithelial voltohmmeter (World Precision Instruments, Sarasota, Fla.) and cells were used when the transepithelial resistance was 300-400 ohms·cm^2. In some experiments, F508del-CFBE41o^− monolayers were incubated at 29° C. or treated with glafenine at 37° C. for 24 h before being mounted in EasyMount chambers and voltage clamped using a VCCMC6 multichannel current-voltage clamp (Physiologic Instruments, San Diego, Calif.). The apical membrane conductance was functionally isolated by permeabilizing the basolateral membrane with 200 μg/ml nystatin and imposing an apical-to-basolateral Cl^− gradient. For these experiments the basolateral bathing solution contained (in mM) 1.2 NaCl, 115 Na-gluconate, 25 NaHCO3, 1.2 MgCl2, 4 CaCl2, 2.4, KH2PO4, 1.24 K2HPO4, 10 glucose (pH 7.4 with NaOH). The CaCl2 concentration was increased to 4 mM to compensate for the chelation of calcium by gluconate. The apical bathing solution contained (in mM) 115 NaCl, 25 NaHCO3, 1.2 MgCl2, 1.2 CaCl2, 2.4 KH2PO4, 1.24 K2HPO4, 10 mannitol (pH 7.4 with NaOH). […]
# [3] = molecular target: T1, ΔF508-CFTR; assay: salivary secretion assay in ΔF508-CFTR mice; format: in vivo
# Description: The procedure followed those recently described by Best & Quinton (Best and Quinton, 2005). Homozygous Δ508-CFTR mice (CFTR^tm1 Eur) and wild-type mice of the same strain were 10-12 weeks old and weighed 20-25 g. They were fed once a day by gavage with saline containing glafenine (50 mg/kg) or vehicle alone (0.1% DMSO) for 2 days. The mice were anaesthetized with ketamine and diazepam on the day of the experiment, then pretreated with a subcutaneous injection of 1 mM atropine into the left cheek. Small strips of Whatman filter paper were placed inside the previously injected cheek for ˜4 min to absorb any salivary secretions. A solution containing 100 μM isoprenaline and 1 mM atropine was then injected into the left cheek at the same site to induce secretion at time zero and the filter paper was replaced every minute for 30 minutes. Each piece of filter paper was immediately placed and sealed in a pre-weighed vial and the time of removal was recorded. The rate of salivary secretion per min and total amount were normalized to the mass of the mouse in grams.
# [4] = molecular target: T1, ΔF508-CFTR; assay: in vivo treatment of ΔF508-CFTR mice by gavage, Isc of freshly isolated ileum; conditions: 50 mg/kg by gavage, once per day, 2 days
# Description: as §1
# T1 sequence (P26361 with tags, fused parts or gaps DEL508-508): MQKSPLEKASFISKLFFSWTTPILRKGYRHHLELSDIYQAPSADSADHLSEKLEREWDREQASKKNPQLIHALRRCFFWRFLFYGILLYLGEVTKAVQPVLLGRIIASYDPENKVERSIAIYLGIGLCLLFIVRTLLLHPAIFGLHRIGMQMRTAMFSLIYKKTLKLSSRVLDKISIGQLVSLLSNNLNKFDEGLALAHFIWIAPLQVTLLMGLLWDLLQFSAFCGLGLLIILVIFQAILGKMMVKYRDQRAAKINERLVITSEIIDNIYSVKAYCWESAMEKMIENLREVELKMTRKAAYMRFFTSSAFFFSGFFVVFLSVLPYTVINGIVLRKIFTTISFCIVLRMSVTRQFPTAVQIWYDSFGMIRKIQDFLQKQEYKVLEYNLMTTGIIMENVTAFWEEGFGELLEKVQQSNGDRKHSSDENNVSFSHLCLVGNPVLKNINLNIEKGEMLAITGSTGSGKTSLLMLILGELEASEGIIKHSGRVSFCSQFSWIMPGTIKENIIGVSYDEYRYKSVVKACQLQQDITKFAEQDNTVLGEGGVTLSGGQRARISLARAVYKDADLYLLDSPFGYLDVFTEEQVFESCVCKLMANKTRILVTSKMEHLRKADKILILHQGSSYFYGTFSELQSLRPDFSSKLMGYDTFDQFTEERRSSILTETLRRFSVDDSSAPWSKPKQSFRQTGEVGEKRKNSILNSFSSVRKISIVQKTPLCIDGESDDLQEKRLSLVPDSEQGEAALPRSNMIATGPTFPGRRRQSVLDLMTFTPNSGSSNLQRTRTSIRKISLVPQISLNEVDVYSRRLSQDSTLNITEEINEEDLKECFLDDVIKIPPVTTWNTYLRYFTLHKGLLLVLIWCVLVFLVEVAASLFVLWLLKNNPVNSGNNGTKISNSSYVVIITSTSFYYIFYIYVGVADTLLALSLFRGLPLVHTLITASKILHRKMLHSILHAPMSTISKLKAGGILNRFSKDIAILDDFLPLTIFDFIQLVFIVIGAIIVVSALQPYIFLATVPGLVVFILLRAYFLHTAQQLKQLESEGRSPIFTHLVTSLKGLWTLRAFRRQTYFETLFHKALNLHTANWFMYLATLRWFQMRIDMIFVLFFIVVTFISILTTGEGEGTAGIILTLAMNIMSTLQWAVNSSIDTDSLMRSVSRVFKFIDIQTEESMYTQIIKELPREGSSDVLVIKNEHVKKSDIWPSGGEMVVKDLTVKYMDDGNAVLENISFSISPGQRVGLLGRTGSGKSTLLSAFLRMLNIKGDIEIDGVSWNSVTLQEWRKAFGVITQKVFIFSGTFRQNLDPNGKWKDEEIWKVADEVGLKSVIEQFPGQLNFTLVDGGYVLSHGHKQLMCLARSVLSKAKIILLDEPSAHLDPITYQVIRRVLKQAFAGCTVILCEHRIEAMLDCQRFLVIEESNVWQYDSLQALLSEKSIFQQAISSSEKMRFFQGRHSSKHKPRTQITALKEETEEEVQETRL
compound,measurement,setting,value
"O=C(OCC(O)CO)c1ccccc1Nc1ccnc2cc(Cl)ccc12 (stereo not drawn) [Glafenine hydrochloride, 2-[(7-chloro-4-quinolinyl)amino]benzoic acid 2,3-dihydroxypropyl ester]",forskolin+genistein-stimulated current versus vehicle alone,[1],~12 fold
same,restoration of the secretory response observed in wild-type mice,[1],~46% and ≈ 46%
same,increase of forskolin+genistein-stimulated Isc compared with DMSO controls,[2],about 2.5 fold
same,restored share of the total salivary response,[3]; 50 mg glafenine per kg,15%
same,maximum rate of saliva production relative to WT mice,"[3]; 50 mg/kg by gavage, 2 days, isoprenaline with atropine, control CF mice 5%",15%
same,forskolin+genistein-stimulated current compared to mice fed with saline alone,[4],~7 fold
